From patent US11053213B2, “Pharmaceutical compounds” (ALMAC DISCOVERY LIMITED, priority 2016, dated 2021)
pIC50: −log10 of the molar value.

Target: USP19 (Homo sapiens (Human), UniProt O94966)
Test: USP19 activity assay (fluorescence polarisation, Ubiquitin-Lys-TAMRA substrate)
Assay type: biochemical
Settings: full-length USP19 2.5 nM, 30 min pre-incubation, Ub substrate 500 nM; average of at least two duplicate experiments
Description: Unless otherwise stated, all other reagents were purchased from Sigma. Enzymatic reactions were conducted in black flat bottom polystyrene 384-well plates (Nunc) and 30 μL total volume. […] Inhibitors were stored as 10 mM DMSO stocks in an inert environment (low humidity, dark, low oxygen, room temperature) using the Storage Pod System and serial dilutions were prepared in buffer just prior to the assay (from 200 μM to 2 pM, 8-18 data point curve). Following incubation at RT for 30 min, the enzymatic reactions were initiated by dispensing the Ub substrate (500 nM, 10 μL). FP was measured every 15 min over a period of 90 min (within the linear range of the assay) using a Synergy 4 plate reader (BioTek) exciting at 530 nm and measuring the amount of parallel and perpendicular light at 575 nm. The FP signal was subsequently normalised to the no compound control.

Chain of USP19 (O94966 whole entry): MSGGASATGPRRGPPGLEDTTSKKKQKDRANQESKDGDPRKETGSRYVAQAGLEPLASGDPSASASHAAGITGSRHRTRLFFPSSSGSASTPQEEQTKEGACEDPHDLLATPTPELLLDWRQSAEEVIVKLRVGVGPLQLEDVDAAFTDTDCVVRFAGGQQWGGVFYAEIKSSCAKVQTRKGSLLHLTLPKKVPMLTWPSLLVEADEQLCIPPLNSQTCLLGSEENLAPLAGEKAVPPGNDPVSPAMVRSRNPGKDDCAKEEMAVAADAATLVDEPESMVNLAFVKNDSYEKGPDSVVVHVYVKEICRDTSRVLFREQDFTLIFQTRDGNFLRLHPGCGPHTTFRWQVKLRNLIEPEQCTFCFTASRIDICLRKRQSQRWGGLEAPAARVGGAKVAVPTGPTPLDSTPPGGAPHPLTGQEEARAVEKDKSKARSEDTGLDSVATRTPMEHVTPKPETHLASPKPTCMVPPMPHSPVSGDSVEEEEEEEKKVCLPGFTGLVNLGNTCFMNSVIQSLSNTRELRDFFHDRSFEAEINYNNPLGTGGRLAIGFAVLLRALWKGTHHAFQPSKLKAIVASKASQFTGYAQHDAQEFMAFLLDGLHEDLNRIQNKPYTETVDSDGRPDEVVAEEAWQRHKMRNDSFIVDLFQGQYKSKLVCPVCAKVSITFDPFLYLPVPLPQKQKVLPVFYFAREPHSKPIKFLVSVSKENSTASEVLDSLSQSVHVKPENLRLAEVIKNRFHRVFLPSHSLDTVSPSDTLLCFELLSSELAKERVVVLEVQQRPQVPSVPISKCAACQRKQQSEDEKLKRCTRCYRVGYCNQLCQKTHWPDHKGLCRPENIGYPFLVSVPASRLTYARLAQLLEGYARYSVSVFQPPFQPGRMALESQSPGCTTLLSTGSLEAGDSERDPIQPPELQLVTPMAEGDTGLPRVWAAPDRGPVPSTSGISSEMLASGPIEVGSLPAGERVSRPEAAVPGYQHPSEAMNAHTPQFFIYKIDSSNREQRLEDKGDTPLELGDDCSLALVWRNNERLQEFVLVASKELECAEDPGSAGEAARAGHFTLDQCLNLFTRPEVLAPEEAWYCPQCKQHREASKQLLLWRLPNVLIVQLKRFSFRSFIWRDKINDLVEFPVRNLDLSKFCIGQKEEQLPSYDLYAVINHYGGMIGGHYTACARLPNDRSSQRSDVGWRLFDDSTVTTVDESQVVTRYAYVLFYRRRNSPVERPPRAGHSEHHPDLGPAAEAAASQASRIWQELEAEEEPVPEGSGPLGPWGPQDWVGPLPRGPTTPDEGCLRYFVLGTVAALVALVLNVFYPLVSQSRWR

| SMILES | pIC50 |
| --- | --- |
| C[C@H](CC1CCCCC1)C(=O)N1CCC(O)(Cn2cc(-c3ccccn3)c(-c3ccccc3F)cc2=O)C(C)(C)C1 (stereo partly drawn) [Example 154, 1′-((1-((R)-3-Cyclohexyl-2-methylpropanoyl)-4-hydroxy-3,3-dimethylpiperidin-4-yl)methyl)-4′-(2-fluorophenyl)-[2,3′-bipyridin]-6′(1′H)-one] | 4.30 to 5.30 |
| CN(C)C(=O)c1cn(CC2(O)CCN(C(=O)COC3CCC3)CC23CCCC3)c(=O)cc1-c1ccccc1 (stereo not shown) [Example 201, 1-((7-(2-Cyclobutoxyacetyl)-10-hydroxy-7-azaspiro[4.5]decan-10-yl)methyl)-N,N-dimethyl-6-oxo-4-phenyl-1,6-dihydropyridine-3-carboxamide] | 4.30 to 5.30 |
| CCC1(C(=O)N2CCC(O)(Cn3cnc(-c4ccccc4F)cc3=O)CC2)CCCCC1 [Example 24, 3-((1-(1-Ethylcyclohexane-1-carbonyl)-4-hydroxypiperidin-4-yl)methyl)-6-(2-fluorophenyl)pyrimidin-4(3H)-one] | 4.30 to 5.30 |
| Cc1cn(CC2(O)CCN(C(=O)C[C@@H](C)c3ccccc3)CC2)c(=O)cc1-c1ccccc1 [Example 111, (R)-1-((4-Hydroxy-1-(3-phenylbutanoyl)piperidin-4-yl)methyl)-5-methyl-4-phenylpyridin-2(1H)-one] | 3.60 to 4.30 |
| CC(C)CC1(C(=O)N2CCC(O)(Cn3cnc(-c4ccccc4F)cc3=O)C(C)(C)C2)CC1 (racemic) [Example 69, (R,S)-6-(2-Fluorophenyl)-3-((4-hydroxy-1-(1-isobutylcyclopropane-1-carbonyl)-3,3-dimethylpiperidin-4-yl)methyl)pyrimidin-4(3H)-one] | 4.30 to 5.30 |
| CC(CC1CCCCCC1)C(=O)N1CCC(O)(Cn2cnc(-c3ccccc3F)cc2=O)CC1 (racemic) [Example 58, (R,S)-3-((1-(3-Cycloheptyl-2-methylpropanoyl)-4-hydroxypiperidin-4-yl)methyl)-6-(2-fluorophenyl)pyrimidin-4(3H)-one] | 4.30 to 5.30 |
| CN(C)C(=O)c1cn(CC2(O)CCN(C(=O)c3csc(C(F)(F)F)n3)CC23CCCC3)c(=O)cc1-c1ccccc1 (stereo not shown) [Example 246, 1-((10-Hydroxy-7-(2-(trifluoromethyl)thiazole-4-carbonyl)-7-azaspiro[4.5]decan-10-yl)methyl)-N,N-dimethyl-6-oxo-4-phenyl-1,6-dihydropyridine-3-carboxamide] | 4.30 to 5.30 |
| C[C@H](CC(=O)N1CCC(O)(Cn2cc(-c3cccc(CN)c3)c(-c3ccccc3)cc2=O)CC1)c1ccccc1 [Example 100, (R)-5-(3-(Aminomethyl)phenyl)-1-((4-hydroxy-1-(3-phenylbutanoyl)piperidin-4-yl)methyl)-4-phenylpyridin-2(1H)-one] | 4.30 to 5.30 |
| CCN(CC)C(=O)c1cn(CC2(O)CCN(C(=O)C[C@@H](C)c3ccccc3)CC2)c(=O)cc1-c1ccccc1 [Example 75, (R)—N,N-Diethyl-1-((4-hydroxy-1-(3-phenylbutanoyl)piperidin-4-yl)methyl)-6-oxo-4-phenyl-1,6-dihydropyridine-3-carboxamide] | 5.30 to 6.30 |
| CC(=O)Nc1cccc(-c2cn(CC3(O)CCN(C(=O)C[C@@H](C)c4ccccc4)CC3)c(=O)cc2-c2ccccc2)c1 [Example 6, (R)—N-(3-(1-((4-Hydroxy-1-(3-phenylbutanoyl)piperidin-4-yl)methyl)-6-oxo-4-phenyl-1,6-dihydropyridin-3-yl)phenyl)acetamide] | 4.30 to 5.30 |
| C[C@H](CC1CCCCC1)C(=O)N1CCC(O)(Cn2cc(C(=O)O)c(-c3ccccc3)cc2=O)C(C)(C)C1 (stereo partly drawn) [Example 241, 1-((1-((R)-3-Cyclohexyl-2-methylpropanoyl)-4-hydroxy-3,3-dimethylpiperidin-4-yl)methyl)-6-oxo-4-phenyl-1,6-dihydropyridine-3-carboxylic acid] | 5.30 to 6.30 |
| CN(C)C(=O)c1cn(CC2(O)CCN(C(=O)C3(C)CCCC3)CC23CCCC3)c(=O)cc1-c1ccccc1 (stereo not shown) [Example 186, 1-((10-Hydroxy-7-(1-methylcyclopentane-1-carbonyl)-7-azaspiro[4.5]decan-10-yl)methyl)-N,N-dimethyl-6-oxo-4-phenyl-1,6-dihydropyridine-3-carboxamide] | 3.60 to 4.30 |

Results, then the compound that gave them:

| pIC50 | SMILES |
| --- | --- |
| 3.60 to 4.30 | Cc1nc(-c2ccccc2)cc(=O)n1CC1(O)CCN(C(=O)CCc2ccccc2)CC1 [Example 34, 3-((4-Hydroxy-1-(3-phenylpropanoyl)piperidin-4-yl)methyl)-2-methyl-6-phenylpyrimidin-4(3H)-one] |
| 5.30 to 6.30 | C[C@H](CC(=O)N1CCC(O)(Cn2cc(C(=O)N3CCOCC3)c(-c3ccccc3)cc2=O)CC1)c1ccccc1 [Example 77, (R)-1-((4-Hydroxy-1-(3-phenylbutanoyl)piperidin-4-yl)methyl)-5-(morpholine-4-carbonyl)-4-phenylpyridin-2(1H)-one] |
| > 6.30 | CN(C)C(=O)c1cn(C[C@]2(O)CCN(C(=O)[C@H](CCO)CC3CCCCC3)CC2(C)C)c(=O)cc1-c1ccccc1 [Example 164, 1-(((S)-1-((S)-2-(Cyclohexylmethyl)-4-hydroxybutanoyl)-4-hydroxy-3,3-dimethylpiperidin-4-yl)methyl)-N,N-dimethyl-6-oxo-4-phenyl-1,6-dihydropyridine-3-carboxamide] |
| 3.60 to 4.30 | CC(CC(=O)N1CCC(O)(Cn2cc(C(=O)N(C)C)c(-c3ccccc3)cc2=O)C2(CCCC2)C1)C(F)(F)F (stereo not shown) [Example 171, 1-((10-Hydroxy-7-(4,4,4-trifluoro-3-methylbutanoyl)-7-azaspiro[4.5]decan-10-yl)methyl)-N,N-dimethyl-6-oxo-4-phenyl-1,6-dihydropyridine-3-carboxamide] |
| 5.30 to 6.30 | Cc1cccc(-c2cc(=O)n(CC3(O)CCN(C(=O)C[C@@H](C)c4ccccc4)CC3)cc2C(=O)N(C)C(C)C)c1 [Example 102, (R)-1-((4-Hydroxy-1-(3-phenylbutanoyl)piperidin-4-yl)methyl)-N-isopropyl-N-methyl-6-oxo-4-(m-tolyl)-1,6-dihydropyridine-3-carboxamide] |
| 4.30 to 5.30 | C[C@H](CC1CCCCC1)C(=O)N1CCC(O)(Cn2cnc(-c3ccccc3F)cc2=O)CC1 [Example 39, (R)-3-((1-(3-Cyclohexyl-2-methylpropanoyl)-4-hydroxypiperidin-4-yl)methyl)-6-(2-fluorophenyl)pyrimidin-4(3H)-one] |
| 3.60 to 4.30 | C[C@H](CC(=O)N1CCC(O)(Cn2cc(-c3cnn(C)c3)c(-c3ccccc3)cc2=O)CC1)c1ccccc1 [Example 109, (R)-1-((4-Hydroxy-1-(3-phenylbutanoyl)piperidin-4-yl)methyl)-5-(1-methyl-1H-pyrazol-4-yl)-4-phenylpyridin-2(1H)-one] |
| 4.30 to 5.30 | C[C@H](CC(=O)N1CCC(O)(Cn2cnc(-c3cccc4ccccc34)cc2=O)CC1)c1ccccc1 [Example 20, (R)-3-((4-Hydroxy-1-(3-phenylbutanoyl)piperidin-4-yl)methyl)-6-(naphthalen-1-yl)pyrimidin-4(3H)-one] |
| 4.30 to 5.30 | CC1(C)CN(C(=O)c2c[nH]nc2C2CCCCC2)CCC1(O)Cn1cnc(-c2ccccc2F)cc1=O (racemic) [Example 67, (R,S)-3-((1-(3-Cyclohexyl-1H-pyrazole-4-carbonyl)-4-hydroxy-3,3-dimethylpiperidin-4-yl)methyl)-6-(2-fluorophenyl)pyrimidin-4(3H)-one] |
| 5.30 to 6.30 | C[C@H](CC(=O)N1CCC(O)(Cn2cc(C(=O)N3CCCCC3)c(-c3ccccc3)cc2=O)CC1)c1ccccc1 [Example 88, (R)-1-((4-Hydroxy-1-(3-phenylbutanoyl)piperidin-4-yl)methyl)-4-phenyl-5-(piperidine-1-carbonyl)pyridin-2(1H)-one] |
| > 6.30 | C[C@H](CC1CCCCC1)C(=O)N1CCC(O)(Cn2cc(C(=O)N3CCOCC3)c(-c3ccccc3)cc2=O)C(C)(C)C1 (stereo partly drawn) [Example 168, 1-((1-((R)-3-Cyclohexyl-2-methylpropanoyl)-4-hydroxy-3,3-dimethylpiperidin-4-yl)methyl)-5-(morpholine-4-carbonyl)-4-phenylpyridin-2(1H)-one] |
| 3.60 to 4.30 | CC(Cn1cccn1)C(=O)N1CCC(O)(Cn2cnc(-c3ccccc3F)cc2=O)C(C)(C)C1 (stereo not shown) [Example 150, 6-(2-Fluorophenyl)-3-((4-hydroxy-3,3-dimethyl-1-(2-methyl-3-(1H-pyrazol-1-yl)propanoyl)piperidin-4-yl)methyl)pyrimidin-4(3H)-one] |
| 5.30 to 6.30 | CN(C)C(=O)c1cn(C[C@]2(O)CCN(C(=O)C(CC(F)(F)F)CC(F)(F)F)CC23CCCC3)c(=O)cc1-c1ccccc1 [Example 218, (S)-1-((10-Hydroxy-7-(4,4,4-trifluoro-2-(2,2,2-trifluoroethyl)butanoyl)-7-azaspiro[4.5]decan-10-yl)methyl)-N,N-dimethyl-6-oxo-4-phenyl-1,6-dihydropyridine-3-carboxamide] |
| 4.30 to 5.30 | C[C@H](CC(=O)N1CCC(O)(Cc2cnc(-c3ccccc3)[nH]c2=O)CC1)c1ccccc1 [Example 33, (R)-5-((4-Hydroxy-1-(3-phenylbutanoyl)piperidin-4-yl)methyl)-2-phenylpyrimidin-4(3H)-one] |
| > 6.30 | C[C@@H]1CN(C(=O)c2cn(C[C@]3(O)CCN(C(=O)[C@H](C)CC4CCCCC4)CC3(C)C)c(=O)cc2-c2ccccc2)CCN1 [Example 213, 1-(((S)-1-((R)-3-Cyclohexyl-2-methylpropanoyl)-4-hydroxy-3,3-dimethylpiperidin-4-yl)methyl)-5-((R)-3-methylpiperazine-1-carbonyl)-4-phenylpyridin-2(1H)-one] |
| 5.30 to 6.30 | C[C@H](CC1CCCCC1)C(=O)N1CCC(O)(Cn2cnc(-c3ccccc3CO)cc2=O)C(C)(C)C1 (stereo partly drawn) [Example 137, 3-((1-((R)-3-Cyclohexyl-2-methylpropanoyl)-4-hydroxy-3,3-dimethylpiperidin-4-yl)methyl)-6-(2-(hydroxymethyl)phenyl)pyrimidin-4(3H)-one] |
